Molecular target: T1, L. helveticus PDT (Lactobacillus helveticus, UniProt Q8RLY5)
T1 construct: gene ptd; recombinant in E. coli BL21(DE3)pLysS from pETLH4; ammonium sulfate and Sephacryl S-200, no tag mentioned; C-terminal residue Tyr167; active site shared with adjacent monomer; 3 monomers per ASU
Test: X-ray crystallography, […] Å, soaked crystals
Assay type: binding
Conditions: soak up to 6 mM; active site, four overlapping orientations; also deoxyribosylated at N1 and N7 with dGuo donor

T1 sequence (Q8RLY5 entry or part of it): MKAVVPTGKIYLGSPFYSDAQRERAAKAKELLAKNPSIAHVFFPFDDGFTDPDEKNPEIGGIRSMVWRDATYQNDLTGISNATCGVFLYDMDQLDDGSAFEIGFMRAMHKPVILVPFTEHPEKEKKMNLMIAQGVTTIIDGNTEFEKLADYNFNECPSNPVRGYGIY

O=c1[nH]c2nccn2c2nc[nH]c12 [compound 1, 8,9-dihydro-9-oxoimidazo[2,1-b]purine]
X-ray crystallography, 2.1 Å, soaked crystals: the substrate binds in at least four different, overlapping orientations

— article PMC4270796, “Ethenoguanines Undergo Glycosylation by Nucleoside 2′-Deoxyribosyltransferases at Non-Natural Sites” (PLoS ONE, 2014)
